{"source": "paper PMC11075021", "about": "“Asymmetric Synthesis of Chiral 2-Cyclohexenones with Quaternary Stereocenters via Ene-Reductase Catalyzed Desymmetrization of 2,5-Cyclohexadienones” (ACS Catalysis, 2024)", "target": "T1, YqjM (Bacillus subtilis, UniProt P54550)", "T1 construct": "gene namA; wild type, purified recombinant enzyme; dimer, both protomers line the active site", "T1 sequence (P54550 2-338)": "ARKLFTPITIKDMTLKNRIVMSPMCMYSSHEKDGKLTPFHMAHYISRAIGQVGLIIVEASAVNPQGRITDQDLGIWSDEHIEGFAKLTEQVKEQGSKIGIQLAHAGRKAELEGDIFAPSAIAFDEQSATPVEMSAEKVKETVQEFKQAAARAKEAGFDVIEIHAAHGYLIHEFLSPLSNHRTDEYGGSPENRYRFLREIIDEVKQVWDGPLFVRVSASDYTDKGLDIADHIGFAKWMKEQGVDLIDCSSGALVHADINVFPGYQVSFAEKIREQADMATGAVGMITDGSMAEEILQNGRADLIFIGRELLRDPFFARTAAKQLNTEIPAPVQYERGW", "assay": "stopped-flow oxidation of prereduced enzyme", "format": "biochemical", "settings": "anoxic; no kinetic saturation in the accessible range", "data": [{"compound": "C[C@@]1(c2ccccc2)C=CC(=O)CC1", "note": "[2a, cyclohexenone 2a]", "values": [{"measurement": "kobs at 800 μM", "value": "Both compounds oxidized prereduced YqjM relatively slowly"}]}]}
